Source: patent publication US11083729B2, “Methods of treating cancer with small molecule NF-κB inhibitors” (ImmuneTarget, Inc., priority 2017, dated 2021)
One block for each compound: values may come before it.

What was measured:
SNU878 = test: CellTiter-Glo IG50, Example 9 HCC panel, SNU878; assay type: cell-based; settings: SNU878, 72 hours
Method: (§1) The cells were harvested during the logarithmic growth period and counted. Cell concentrations were adjusted to the appropriate number in appropriate medium and 90 μl cell suspensions were added to 96-well plates. When cells were added, the plates were shaken gently to distribute the cells evenly. Cells were incubated at 37° C. and 5% CO2.
(§2) 3× serial dilutions of test compound stock solutions with respective solvents were prepared. The stock solutions were diluted with culture medium to generate 10× working solutions of the test compounds. 10 μl of the 10× test compound solutions were added to each well in triplicate for each concentration. Plates were incubated for 72 hours in a humidified incubator at 37° C. and 5% CO2.
(§3) CellTiter-Glo (CTG) solution was thawed and equilibrated to room temperature. 50 μl of CTG were added to each well and the contents were mixed for 2 minutes on a plate shaker. Cells were incubated for 10 minutes before luminescence signal was recorded using Envision.
(§4) Cell viability was plotted with GraphPad Prism version 5 and the IG50 was calculated for each cell line. The graphical curves were fitted using a nonlinear regression model with a sigmoidal dose response. IG50 is the concentration of test drug where 100×T/C=50 (the optical density of the test well after a 3-day period of exposure to test drug is T; the control optical density is C).
(§5) The cells were cultured in an atmosphere of 37° C., 5% CO2 and 95% humidity. All culture media and FBS were purchased from GIBCO, Hyclone or Sigma, USA. The media used for cell culture is described in the table below.
(§6) Following the cell culture protocol and data analysis methods described in Example 8, the following IG50 results (in μM) were observed: […]

Hep3B [1] = test: CellTiter-Glo IG50, Example 9 HCC panel, Hep3B; assay type: cell-based; settings: Homo sapiens, 72 hours
Method: as §1, §2, §3, §4, §5, §6

PLC/PRF/5 [2] = test: CellTiter-Glo IG50, Example 9 HCC panel, PLC/PRF/5; assay type: cell-based; settings: Homo sapiens, PLC/PRF/5, 72 hours
Method: as §1, §2, §3, §4, §5, §6

PBMC = test: CellTiter-Glo IG50, Example 9 HCC panel, PBMC; assay type: cell-based; settings: 72 hours
Method: as §1, §2, §3, §4, §5, §6

HUH7 = test: CellTiter-Glo IG50, Example 9 HCC panel, HUH7; assay type: cell-based; settings: Homo sapiens, Huh-7, HUH7, 72 hours
Method: as §1, §2, §3, §4, §5, §6

HepG2 [3] = test: CellTiter-Glo IG50, Example 9 HCC panel, HepG2; assay type: cell-based; settings: Homo sapiens, HepG2, 72 hours
Method: as §1, §2, §3, §4, §5, §6

JHH5 = test: CellTiter-Glo IG50, Example 9 HCC panel, JHH5; assay type: cell-based; settings: JHH5, 72 hours
Method: as §1, §2, §3, §4, §5, §6

KATO III = test: CellTiter-Glo IG50, Example 8, KATO III; assay type: cell-based; settings: Homo sapiens, 72 hours
Method: (§7) Various pancreatic, liver, colon, breast, and stomach cancer cell lines were exposed to the NF-κB inhibitors of the present invention, including, for example, IT-839, IT-843, IT-848, and IT-878, and assessed for IG50 in the CellTiter Glo 2.0 assay.
as §5, §1, §2, §3, §4

MKN45 = test: CellTiter-Glo IG50, Example 8, MKN45; assay type: cell-based; settings: Homo sapiens, MKN-45, MKN45, 72 hours
Method: as §7, §5, §1, §2, §3, §4

HCT116 = test: CellTiter-Glo IG50, Example 8, HCT116; assay type: cell-based; settings: Homo sapiens, HCT-116, HCT116, 72 hours
Method: as §7, §5, §1, §2, §3, §4

LoVo = test: CellTiter-Glo IG50, Example 8, LoVo; assay type: cell-based; settings: Homo sapiens, 72 hours
Method: as §7, §5, §1, §2, §3, §4

AGS = test: CellTiter-Glo IG50, Example 8, AGS; assay type: cell-based; settings: Homo sapiens, 72 hours
Method: as §7, §5, §1, §2, §3, §4

HT-29 = test: CellTiter-Glo IG50, Example 8, HT-29; assay type: cell-based; settings: Homo sapiens, HT-29, 72 hours
Method: as §7, §5, §1, §2, §3, §4

MCF-7 = test: CellTiter-Glo IG50, Example 8, MCF-7; assay type: cell-based; settings: Homo sapiens, MCF7, MCF-7, 72 hours
Method: as §7, §5, §1, §2, §3, §4

MIAPACA-2 = test: CellTiter-Glo IG50, Example 8, MIAPACA-2; assay type: cell-based; settings: Homo sapiens, MIA PaCa-2, MIAPACA-2, 72 hours
Method: as §7, §5, §1, §2, §3, §4

HepG2 [4] = test: CellTiter-Glo IG50, Example 8, HepG2; assay type: cell-based; settings: Homo sapiens, HepG2, 72 hours
Method: as §7, §5, §1, §2, §3, §4

Capan-1 = test: CellTiter-Glo IG50, Example 8, Capan-1; assay type: cell-based; settings: Homo sapiens, Capan-1, 72 hours
Method: as §7, §5, §1, §2, §3, §4

PLC/PRF/5 [5] = test: CellTiter-Glo IG50, Example 8, PLC/PRF/5; assay type: cell-based; settings: Homo sapiens, PLC/PRF/5, 72 hours
Method: as §7, §5, §1, §2, §3, §4

MDA-MB-231 = test: CellTiter-Glo IG50, Example 8, MDA-MB-231; assay type: cell-based; settings: Homo sapiens, MDA-MB-231, 72 hours
Method: as §7, §5, §1, §2, §3, §4

PANC-1 = test: CellTiter-Glo IG50, Example 8, PANC-1; assay type: cell-based; settings: Homo sapiens, PANC-1, 72 hours
Method: as §7, §5, §1, §2, §3, §4

T47D = test: CellTiter-Glo IG50, Example 8, T47D; assay type: cell-based; settings: Homo sapiens, 72 hours
Method: as §7, §5, §1, §2, §3, §4

Hep3B [6] = test: CellTiter-Glo IG50, Example 8, Hep3B; assay type: cell-based; settings: Homo sapiens, 72 hours
Method: as §7, §5, §1, §2, §3, §4

c-Rel protein = target: T1, c-Rel protein (Homo sapiens, UniProt Q04864); test: Electrophoretic Mobility Shift Assay (EMSA), c-Rel binding to CD28RE oligonucleotide; settings: 10 nM c-Rel protein
T1 sequence (Q04864 1-619): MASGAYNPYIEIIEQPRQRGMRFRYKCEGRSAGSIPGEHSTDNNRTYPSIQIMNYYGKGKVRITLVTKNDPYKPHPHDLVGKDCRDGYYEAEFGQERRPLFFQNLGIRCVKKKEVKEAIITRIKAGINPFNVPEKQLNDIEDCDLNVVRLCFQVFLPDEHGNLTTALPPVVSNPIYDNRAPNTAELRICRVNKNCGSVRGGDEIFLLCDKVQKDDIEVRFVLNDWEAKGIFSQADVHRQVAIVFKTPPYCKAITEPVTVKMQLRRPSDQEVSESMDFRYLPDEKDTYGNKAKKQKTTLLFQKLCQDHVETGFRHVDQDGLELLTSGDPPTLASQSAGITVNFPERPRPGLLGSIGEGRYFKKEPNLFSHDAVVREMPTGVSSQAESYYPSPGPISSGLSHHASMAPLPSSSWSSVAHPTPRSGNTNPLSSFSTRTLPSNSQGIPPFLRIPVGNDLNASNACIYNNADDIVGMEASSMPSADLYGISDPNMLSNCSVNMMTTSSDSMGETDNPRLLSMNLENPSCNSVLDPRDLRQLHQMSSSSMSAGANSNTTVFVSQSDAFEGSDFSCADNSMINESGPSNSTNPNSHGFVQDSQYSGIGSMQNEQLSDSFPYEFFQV
Method: DNA binding reaction (20 μL) was carried out in 1×DNA Binding Buffer (10 mM Tris, 40 mM NaCl, 1 mM EDTA, 4% glycerol) with 10 nM c-Rel protein and 0.5 ng phosphor-labeled CD28RE oligonucleotide for 10 minutes at room temperature in 96-well plates. Test compounds, in serial dilutions, were added into each well, and further incubated for 15 minutes before loading onto native 5% polyacrylamide gel. Electrophoresis proceeded for 2.5 hours at 160V. Radioactive signals were quantified using Phospho-Imager. IC50 of compounds of example 1 to 75 were determined by quantifying the intensity of Rel/NF-κB inhibition in EMSA using phospho-imager. An example of EMSA data of the present invention is shown for compound 6 in FIG. 2.

Structure (SMILES): O=c1[nH]cc(F)c(=O)[nH]1 [5-FU, 5-fluorouracil, reference compound]
IC50 (KATO III): > 64 µM | IC50 (MKN45): 4.72 µM | IC50 (HCT116): 5.2 µM | IC50 (LoVo): 27 µM | IC50 (AGS): 31.9 µM | IC50 (HT-29): 15.9 µM

Structure (SMILES): CCOc1ccc2cc3c(=O)[nH]c(=O)nc-3sc2c1 [compound 49, 8-ethoxy-2H-thiochromeno[2,3-d]pyrimidine-2,4(3H)-dione]
IC50 (c-Rel protein): < 1 µM

Structure (SMILES): CC(C)(C)COc1cc2oc3nc(=O)[nH]c(=O)c-3cc2cc1F [compound 36]
IC50 (c-Rel protein): < 0.5 µM

Continued, in another order:

IC50 (SNU878): > 16 µM | IC50 (Hep3B [1]): > 16 µM | IC50 (PLC/PRF/5 [2]): > 16 µM | IC50 (HUH7): 17.7 µM | IC50 (HepG2 [3]): 4.9 µM | IC50 (JHH5): 8.5 µM
Structure (SMILES): COCCOCCOc1ccc2cc3c(=O)[nH]c(=O)nc-3oc2c1Cl [IT-876]
IC50 (PBMC): 8.67 µM

IC50 (MKN45): > 16 µM | IC50 (MCF-7): > 16 µM | IC50 (MIAPACA-2): 17.8 µM | IC50 (HCT116): > 16 µM | IC50 (HepG2 [4]): > 16 µM | IC50 (MDA-MB-231): > 16 µM | IC50 (LoVo): > 16 µM | IC50 (AGS): > 16 µM | IC50 (PANC-1): > 16 µM | IC50 (HT-29): > 16 µM | IC50 (T47D): > 16 µM | IC50 (Hep3B [6]): 3.45 µM
Structure (SMILES): COCCCCOc1ccc2cc3c(=O)[nH]c(=O)nc-3oc2c1Cl [IT-878]
IC50 (KATO III): > 16 µM | IC50 (Capan-1): > 16 µM | IC50 (PLC/PRF/5 [5]): > 16 µM
